Measurements as given in article PMC11354310, “The Discovery of a Specific CKIP-1 Ligand for the Potential Treatment of Disuse Osteoporosis” (International Journal of Molecular Sciences, 2024).
pKd: −log10 of the molar value.

Legend:
[1] = target: T1, CKIP-1 (casein kinase 2 interacting protein-1) (Homo sapiens, UniProt Q53GL0); assay: SPR (Biacore T200, GST-CKIP-1-C1 captured on CM5 via anti-GST); supported by CETSA in HEK293T cells with Flag-CKIP-1; type: binding
T1 construct: gene PLEKHO1; GST-CKIP-1-C1 (C-terminal leucine zipper region, 345–409)
T1 sequence (Q53GL0 345-409): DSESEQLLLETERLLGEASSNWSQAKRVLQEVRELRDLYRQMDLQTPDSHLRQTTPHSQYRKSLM

[2] = target: T1, CKIP-1 (casein kinase 2 interacting protein-1); assay: SPR (Biacore T200, GST-CKIP-1-C1 captured on CM5 via anti-GST); type: binding

A pKd [1] of 7.57 was found for `CNC(=O)c1c(F)ccc(NS(=O)(=O)c2ccc(OC)nc2)c1-c1cc(C(F)(F)F)cc(C(F)(F)F)c1` [C77] in this work.

A pKd [2] of 5.66 was found for `CNC(=O)C1(NC(=O)/C=C/c2cc(I)cc(OC)c2O)CC1` [C170] in this work.
